Values of other authors as cited in PubChem BioAssay AID1259410 (Chemical Carcinogenesis Research Information System (CCRIS), 2018).

Test system: rodent tumor promotion studies, tumor incidence
Experiment: CCRIS tumor promotion studies

Cc1cccc(Nc2cc(Cl)nc(SCC(=O)O)n2)c1C
outcome (Carcinogen: 2-ACETYLAMINOFLUORENE, 53-96-3, Doses [Carcinogen]: 0.02% IN DIET FOR 8 WK, Doses [Promoter]: 0, 0.1% IN DIET FOR 37 WK BEGINNING 2 WK POST CARCINOGEN TREATMENT (STUDY DURATION: 39 WK), Route [Carcinogen]: ORAL, Route [Promoter]: ORAL, Species: RAT, Strain/Sex: F344/MALE): liver: adenoma | outcome (Carcinogen: DIETHYLNITROSAMINE, 55-18-5, Doses [Carcinogen]: 150 MG/KG BW ONCE, Doses [Promoter]: 0, 0.1% IN DIET FOR 37 WK BEGINNING 2 WK POST CARCINOGEN TREATMENT (STUDY DURATION: 39 WK), Route [Carcinogen]: INTRAPERITONEAL, Route [Promoter]: ORAL, Species: RAT, Strain/Sex: F344/MALE): liver: adenoma | outcome (Carcinogen: DIETHYLNITROSAMINE, 55-18-5, Doses [Carcinogen]: 150 MG/KG ONCE, Doses [Promoter]: 0.1% IN DIET BEGINNING 2 WK POST CARCINOGEN DOSE AND CONTINUING FOR 54 WK (STUDY DURATION: 56 WK), Route [Carcinogen]: INTRAPERITONEAL, Route [Promoter]: ORAL, Species: RAT, Strain/Sex: F344/MALE): liver: hepatocellular carcinoma or neoplastic nodule | outcome (Carcinogen: DIETHYLNITROSAMINE, 55-18-5, Doses [Carcinogen]: 150 MG/KG ONCE, Doses [Promoter]: 0.1% IN DIET BEGINNING 2 WK POST CARCINOGEN DOSE FOR 71 WK FOLLOWED BY CONTROL DIET FOR DURATION OF STUDY (STUDY DURATIO, Route [Carcinogen]: INTRAPERITONEAL, Route [Promoter]: ORAL, Species: RAT, Strain/Sex: F344/MALE): liver: hepatocellular carcinoma or neoplastic nodule | outcome (Carcinogen: DIETHYLNITROSAMINE, 55-18-5, Doses [Carcinogen]: 150 MG/KG ONCE, Doses [Promoter]: 0.1% IN DIET BEGINNING 11 WK POST CARCINOGEN DOSE AND CONTINUING FOR DURATION OF STUDY (STUDY DURATION: 56 WK), Route [Carcinogen]: INTRAPERITONEAL, Route [Promoter]: ORAL, Species: RAT, Strain/Sex: F344/MALE): liver: hepatocellular carcinoma or neoplastic nodule

Cc1ccc(O)c(O)c1
outcome (Carcinogen: N-METHYL-N'-NITRO-N-NITROSOGUANIDINE, 70-25-7, Doses [Carcinogen]: 150 MG/KG IN DMSO ONCE, Doses [Promoter]: 0, 1.5% IN DIET FOR 51 WK BEGINNING 1 WK AFTER CARCINOGEN DOSE (STUDY DURATION: 52 WK), Route [Carcinogen]: GAVAGE, Route [Promoter]: ORAL, Species: RAT, Strain/Sex: F344/MALE): forestomach: squamous cell carcinoma; glandular stomach: adenocarcinoma

CCCCCCCCCC(=O)OC[C@H](CO)OC(=O)CCCCCCCCC
outcome (Carcinogen: 7,12-DIMETHYLBENZ[A]ANTHRACENE, 57-97-6, Doses [Carcinogen]: 200 NMOL IN 200 µL OF ACETONE ONCE, Doses [Promoter]: 0, 2, 5 UMOL IN 20 µL ACETONE 2/D 5 D/WK FOR 20 WK BEGINNING 1 WK AFTER LAST CARCINOGEN DOSE (STUDY DURATION: 24 WK), Doses [Promoter]: 0, 2, 5 UMOL IN 20 µL ACETONE 2/D 5 D/WK FOR 20 WK BEGINNING 1 WK AFTER LAST CARCINOGEN DOSE (STUDY DURATION: 24 WK), Route [Carcinogen]: DERMAL, Route [Promoter]: DERMAL, Species: MOUSE, Strain/Sex: CD-1/FEMALE): skin: papilloma

S=C=NCCc1ccccc1
outcome (Carcinogen: DIETHYLNITROSAMINE, 55-18-5, N-BUTYL-N-(4-HYDROXYBUTYL)NITROSAMINE, 3817-11-6, Carcinogen: DIETHYLNITROSAMINE, 55-18-5, N-BUTYL-N-(4-HYDROXYBUTYL)NITROSAMINE, 3817-11-6, Doses [Carcinogen]: 200 MG/KG DEN ONCE THEN 0.05% BBN IN DRINKING WATER FOR 4 WK, Doses [Promoter]: 0, 0.1% IN DIET FOR 32 WKS BEGINNING 3 D POST CARCINOGEN TREATMENT (STUDY DURATION:36 WK), Route [Carcinogen]: INTRAPERITONEAL, ORAL, Route [Promoter]: ORAL, Species: RAT, Strain/Sex: F344/MALE): urinary bladder: carcinoma

CC(=O)OO
outcome (Carcinogen: 7,12-DIMETHYLBENZ(A)ANTHRACENE, Doses [Carcinogen]: TOP, Route [Carcinogen]: DERMAL, Route [Promoter]: DERMAL, Species: MOUSE, Strain/Sex: FEMALE): integumentary system (skin)

CCCCN(CCCCO)N=O
outcome (Carcinogen: DIETHYLNITROSAMINE, 55-18-5, N-METHYLNITROSOUREA, 684-93-5, DIHYDROXY-DI-N- PROPYLNITRASAMINE, 53609-64-6, Carcinogen: DIETHYLNITROSAMINE, 55-18-5, N-METHYLNITROSOUREA, 684-93-5, DIHYDROXY-DI-N- PROPYLNITRASAMINE, 53609-64-6, Doses [Carcinogen]: 100 MG/KG/BW DEN ONCE AT BEGINNING OF STUDY THEN 20 MG/KG/BW MNU ONCE ON D 2, 5, 8 AND 11 OF STUDY FOLLOWED BY 0.1% DHPN, Doses [Promoter]: 0, 0.1% IN DRINKING WATER BEGINNING POST CARCINOGEN TREATMENT AND CONTINUING FOR DURATION OF STUDY (STUDY DURATION: 20 W, Route [Carcinogen]: INTRAPERITONEAL, INTRAPERITONEAL, ORAL, Route [Carcinogen]: INTRAPERITONEAL, INTRAPERITONEAL, ORAL, Route [Promoter]: ORAL, Species: RAT, Strain/Sex: F344/MALE): urinary bladder: transitional cell papilloma | outcome (Carcinogen: N-BIS(2-HYDROXYPROPYL)NITROSAMINE, 53609-64-6, N-ETHYL-N-HYDROXYETHYLNITROSAMINE, 13147-25-6, 3,2'-DIMETHYL-4-AMINOB, Carcinogen: N-BIS(2-HYDROXYPROPYL)NITROSAMINE, 53609-64-6, N-ETHYL-N-HYDROXYETHYLNITROSAMINE, 13147-25-6, 3,2'-DIMETHYL-4-AMINOB, Doses [Carcinogen]: 1000 MG/KG IP IN SALINE ON DAY 1 AND 4, 1500 MG/KG IG IN DISTILLED WATER ON DAY 8 AND 11, 75 MG/KG SC IN CORN OIL ON D, Doses [Carcinogen]: 1000 MG/KG IP IN SALINE ON DAY 1 AND 4, 1500 MG/KG IG IN DISTILLED WATER ON DAY 8 AND 11, 75 MG/KG SC IN CORN OIL ON D, Doses [Promoter]: 0, 0.1% IN DRINKING WATER BEGINNING 1 WK POST LAST CARCINOGEN DOSE AND CONTINUING FOR 12 WK (STUDY DURATION: 16 WK), Route [Carcinogen]: INTRAPERITONEAL, GAVAGE, SUBCUTANEOUS, Route [Carcinogen]: INTRAPERITONEAL, GAVAGE, SUBCUTANEOUS, Route [Promoter]: ORAL, Species: RAT, Strain/Sex: F344/MALE): urinary bladder: tumor

H-HADGVFTSDYSRLLGQLSAKKYLESLI-NH2
outcome (Carcinogen: AZOXYMETHANE, 25843-45-2, Doses [Carcinogen]: 7.4 MG/KG BW IN 0.9% SALINE 1/WK FOR 10 WK, Doses [Promoter]: 0, 4 NMOL/KG BW IN OLIVE OIL 1/2 D FOR DURATION OF STUDY (STUDY DURATION: 35 WK), Route [Carcinogen]: SUBCUTANEOUS, Route [Promoter]: SUBCUTANEOUS, Species: RAT, Strain/Sex: WISTAR/MALE, FEMALE): colon: tumor

Oc1ccc(Cl)cc1Cc1ccccc1
outcome (Carcinogen: 7,12-DIMETHYLBENZ[A]ANTHRACENE, 57-97-6, Doses [Carcinogen]: 50 UG IN ACETONE ONCE, Doses [Promoter]: 3 MG IN ACETONE 3/WK FOR 51 WK (STUDY DURATION: 52 WK), Route [Carcinogen]: DERMAL, Route [Promoter]: DERMAL, Species: MOUSE, Strain/Sex: CD-1/FEMALE): skin: papilloma

C[C@]12CC[C@H]3[C@@H](CCC4=CC(=O)CC[C@@]43C)[C@@H]1CC[C@@H]2O
outcome (Carcinogen: DIETHYLNITROSAMINE, 55-18-5, Doses [Carcinogen]: 2.5 UG/G BW IN SALINE ONCE, Doses [Promoter]: 0, 0.5-1 MG IN PELLET IMPLANTED 1/MONTH FOR 30 WK BEGINNING 30 D POST CARCINOGEN TREATMENT. DOSING BEGAN SAME DAY OF BIL, Route [Carcinogen]: INTRAPERITIONEAL, Route [Promoter]: SUBCUTANEOUS, Species: MOUSE, Strain/Sex: B6C3F1/FEMALE): liver: tumor

C/C(=C\CO)CCC[C@H](C)CCC[C@H](C)CCCC(C)C
outcome (Carcinogen: 7,12-DIMETHYLBENZ[A]ANTHRACENE, 57-97-6, Doses [Carcinogen]: 100 UG ONCE, Doses [Promoter]: 0, 100 MG 2 D/WK FOR 16 WK BEGINNING 1 WK POST CARCINOGEN DOSE (STUDY DURATION: 41 WK), Route [Carcinogen]: DERMAL, Route [Promoter]: DERMAL, Species: MOUSE, Strain/Sex: ICR/FEMALE): skin: tumor

O=C1c2cccc(O)c2C(=O)c2c(O)cccc21
outcome (Carcinogen: 1,2-DIMETHYLHYDRAZINE, 540-73-8, Doses [Carcinogen]: 20 MG/KG BW 1/WK FOR 12 WK, Doses [Promoter]: 0, 0.2% IN DIET FOR 42 WK BEGINNING POST CARCINOGEN TREATMENT (STUDY DURATION: 54 WK), Route [Carcinogen]: SUBCUTANEOUS, Route [Promoter]: ORAL, Species: MOUSE, Strain/Sex: ICR/CD-1/MALE): colon: tumor; liver: tumor

ClC1C(Cl)C(Cl)C(Cl)C(Cl)C1Cl (stereo not drawn)
outcome (Carcinogen: DIETHYLNITROSAMINE, 55-18-5, Doses [Carcinogen]: 5 UG/G BW IN 0.1 ML SALINE ONCE AT 15 D OF AGE, Doses [Promoter]: 0, 250 PPM IN DIET FOR 24 WK BEGINNING AT 28 D OF AGE (STUDY DURATION: 26 WK), Route [Carcinogen]: INTRAPERITONEAL, Route [Promoter]: ORAL, Species: MOUSE, Strain/Sex: B6C3F1/FEMALE): liver: adenoma

O=[N+]([O-])c1ccc2ccc3cccc4ccc1c2c34
outcome (Carcinogen: POLYCHLORINATED BIPHENYLS, 1336-36-3, Doses [Carcinogen]: 2.5 MG/KG ONCE, Doses [Promoter]: 0, 1575 MG/KG IN DMSO ADMINISTERED IN 17 DOSES 3/WK BEGINNING POST CARCINOGEN TREATMENT (STUDY DURATION: 18 WK), Route [Carcinogen]: INTRAPERITONEAL, Route [Promoter]: INTRAPERITONEAL, Species: MOUSE, Strain/Sex: A/J/MALE): lung: adenoma and adenocarcinoma
